Assay results as given in patent publication EP3102180B1, “A TOPICAL COMPOSITION” (Unilever N.V., priority 2014, dated 2015).

What was measured:
Assay type in all cases: cell-based
TNF-alpha [1] = assay: TNF-alpha ELISA in PBMCs exposed to P.acne (with or without antimicrobial treatment of the bacteria); conditions: Table 10: PBMCs; Andrographolide pre-treatment (0.001% per procedure); P.acne treated with 0.05% Thymol, 0.05% Terpineol or 0.2% Silver Oxide; P.acne alone 635.6
IL-8 [2] = assay: IL-8 ELISA in PBMCs exposed to P.acne (with or without antimicrobial treatment of the bacteria)
Method: Actives/ Compositions as shown in Table-8 were measured for effect on inflammatory marker IL-8 using the following procedure: PBMCs were isolated as discussed before for Example-1. They were then plated in a 96-well plate. In some wells, cells were pre-treated with 0.001% Andrographolide for 24 hours and some wells were not treated with anything. P.acne culture was grown on CY agar medium in aneorobic chamber and then culture was set to the .005 O.D. Bacterial culture was treated with antimicrobial active combination of thymol (0.05%) and terpineol (0.05%) for 30 seconds. After the contact time is over, sample was neutralized in D/E neutralizer. The bacterial pellet was collected by centrifugation. The pellet was re-suspended in cell culture medium and bacterial culture was added to the cells (PBMC's) treated with andrographolide and also bacterial culture was added to the wells where there was no treatment with andrographolide. Live P.acne (not treated with the antimicrobial actives) was added to the wells where there was no treatment with andrographolide and also added to the wells treated with andrographolide. The treated cells were incubated in 37° C incubator for 24 hours. After 24 hours the supernatant was removed and ELISA was done for IL-8 marker.
The same procedure was followed as explained in the previous section for this experiment. The antimicrobials which were used for this experiment were thymol, terpineol, Triclosan (TCN) and Trichlorocarban (TCC). The used concentrations of these antimicrobials and the concentration of the IL-8 marker after the treatment are summarized in the following Table 9. Table - 9

IL-17 [3] = assay: Co-treatment with different actives, cytokine ELISA in PBMCs; conditions: co-treatment with 0.001% active, 25 ng PMA/ 1 µg lonomycin; control 2244
TNF-alpha [4] = assay: TNF-alpha ELISA in primary keratinocytes, LPS-induced inflammation; conditions: primary keratinocytes pretreated 24 hours with 0.001% active, 25 µg LPS; control 283
Method: (§1) The procedure used to measure the anti-inflammatory potential of the various samples was as follows: The primary keratinocytes were seeded in a 24 well plate (80000 cell/well). On attaining full confluency, the cells were pretreated with the active for 24 hours. Inflammation was induced either through using LPS or through use of live and heat treated P. acnes for 24 hours. The cell-supernatant was then taken and frozen. The cytokine levels in these supernatants were detected by ELISA.

IL-8 [5] = assay: IL-8 ELISA in keratinocytes induced with LPS, heat killed or live P. acnes
Method: as §1
The experiments as shown in Table - 6 were studies using keratinocyte cell lines and the IL-8 concentration was measured. Table - 6
Examples K, 9 and 10: Experiments similar to J, 7 and 8 except that live p.acne was used

IL-17 [6] = assay: IL-17 ELISA in PBMCs pretreated with active, induced with PMA/ionomycin; conditions: PBMCs pretreated with 0.001% active for 24 hours, induction 24 hours with 25 ng PMA/ 1 µg lonomycin; control 732; lower = more anti-inflammatory
Method: (§2) The procedure used to measure the anti-inflammatory potential of the various samples was as follows: Blood was diluted with equal volume of HBSS or PBS(1:1). The PBMCs were isolated into fresh tube. These PBMC's were then plated in 96 well plate (10^6 cell/well). They were then pretreated with the active (for 24 hours). Induction was then carried out with antigen/mitogen for 24 hours. The cell-supernatant was then taken and frozen. The cytokine levels in these supernatants were detected by ELISA.

TNF-alpha [7] = assay: TNF-alpha ELISA in PBMCs pretreated with active, induced with PMA/ionomycin; conditions: 0.001% active, 25 ng PMA/ 1 µg lonomycin, control 5384, lower = more anti-inflammatory
Method: as §2
The experiments were conducted using a similar procedure as earlier except that TNF-alpha ELISA was measured as a marker. Table -2

bacterial cells = assay: Antibacterial contact-time kill test (pour plate count after neutralisation); conditions: 0.2% TCC or 0.2% thymol + 0.5% terpineol
Method: Efficacy of two compositions as shown in Table - 4 were measured as follows: The O.D of the bacterial cells were adjusted such that it corresponds to 1X10^8 cells of bacteria. 1ml of the bacterial culture was taken and added to 9 ml of the test solution (containing the antimicrobial active). The mixture was kept for the desired amount of time after which it was neutralized by adding 1 ml of mix to the 9 ml of D/E neutralizer. It was then serially diluted till 10^5. The number of bacteria was then enumerated by using the pour plate method.

[8] = Table 9: PBMCs, Andrographolide pre-treatment (0.001% per procedure), P.acne treated with 0.05% Thymol, 0.05% Terpineol, 0.2% TCC, 0.2% TCN or 0.2% Silver Oxide, P.acne alone 641.5

[Ag+].[Ag+].[O-2] [Silver Oxide, silver oxide, reference compound]
TNF-alpha concentration (TNF-alpha [1]): 494.3 pg/mL
IL-8 concentration (IL-8 [2]; [8]): 599.8 pg/mL

CC1=C(/C=C/C(C)=C/C=C/C(C)=C/CO)C(C)(C)CCC1 [Retinol]
IL-17 concentration (IL-17 [3]): 2006 pg/mL

CC1=C(/C=C/C(C)=C/C=C/C(C)=C/C(=O)O)C(C)(C)CCC1 [Retinoic acid]
IL-17 concentration (IL-17 [3]): 2762 pg/mL

C=C1CC[C@@H]2[C@](C)(CO)[C@H](O)CC[C@@]2(C)[C@@H]1C/C=C1/C(=O)OC[C@H]1O [Andrographolide, andrographolide]
TNF-alpha concentration (TNF-alpha [4]): 156 pg/mL
TNF-alpha concentration (TNF-alpha [1]): 231.15 pg/mL
IL-17 concentration (IL-17 [3]): 1187 pg/mL
IL-8 concentration (IL-8 [5]; 0.01% active, inducer 50 µg LPS, control 649): 229 pg/mL
IL-8 concentration (IL-8 [5]; 0.01% active, inducer heat killed P. acnes, control 2238): 1088 pg/mL
IL-8 concentration (IL-8 [5]; 0.01% active, inducer live P. acnes, control 558): 337 pg/mL
IL-8 concentration (IL-8 [5]; 0.1% active, inducer 50 µg LPS, control 649): 78 pg/mL
IL-8 concentration (IL-8 [5]; 0.1% active, inducer heat killed P. acnes, control 2238): 230 pg/mL
IL-8 concentration (IL-8 [5]; 0.1% active, inducer live P. acnes, control 558): 205 pg/mL
IL-17 concentration (IL-17 [6]): 143 pg/mL
IL-8 concentration (IL-8 [2]; Table 8: PBMCs pre-treated with 0.001% Andrographolide for 24 hours and/or P.acne treated with thymol (0.05%) and terpineol (0.05%) for 30 seconds, P. acnes alone 957): 400 pg/mL
IL-8 concentration (IL-8 [2]; [8]): 276.48 pg/mL
TNF-alpha concentration (TNF-alpha [7]): 58 pg/mL

O=C(Nc1ccc(Cl)cc1)Nc1ccc(Cl)c(Cl)c1 [TCC, Trichlorocarbanilide]
Log CFU/ml (bacterial cells; contact time 15 seconds, 1X10^8 cells of bacteria): 7.1 Log CFU/ml
Log CFU/ml (bacterial cells; contact time 30 seconds): 7.1 Log CFU/ml
Log CFU/ml (bacterial cells; contact time 1 minute): 7.1 Log CFU/ml
Log CFU/ml (bacterial cells; contact time 5 minutes): 7.1 Log CFU/ml
IL-8 concentration (IL-8 [2]; [8]): 626.48 pg/mL

CCC(C)(C)C(=O)O[C@H]1C[C@@H](C)C=C2C=C[C@H](C)[C@H](CC[C@@H]3C[C@@H](O)CC(=O)O3)[C@H]21 [Simvastatin, reference compound]
IL-17 concentration (IL-17 [6]): 493 pg/mL

Cc1ccc(C(C)C)c(O)c1 [Thymol, thymol]
TNF-alpha concentration (TNF-alpha [1]): 546.94 pg/mL
IL-8 concentration (IL-8 [2]; [8]): 546.38 pg/mL

Oc1cc(Cl)ccc1Oc1ccc(Cl)cc1Cl [TCN, Triclosan, reference compound]
IL-8 concentration (IL-8 [2]; [8]): 613.15 pg/mL
